Assays:
[1] = molecular target: Adrenergic β2 (Homo sapiens (Human), UniProt P07550); assay: Radioligand binding assay No. 204110; conditions: test substance 10 μM, read-out: Inhibitory rate (%), Adrenergic β2
[2] = molecular target: Cannabinoid CB1 (Homo sapiens (Human), UniProt P21554); assay: Radioligand binding assay No. 217030; conditions: test substance 10 μM, read-out: Inhibitory rate (%), Cannabinoid CB1
[3] = molecular target: Dopamine D3 (Homo sapiens (Human), UniProt P35462); assay: Radioligand binding assay No. 219800; conditions: test substance 10 μM, read-out: Inhibitory rate (%), Dopamine D3
Dopamine D3, sequence (P35462 whole entry): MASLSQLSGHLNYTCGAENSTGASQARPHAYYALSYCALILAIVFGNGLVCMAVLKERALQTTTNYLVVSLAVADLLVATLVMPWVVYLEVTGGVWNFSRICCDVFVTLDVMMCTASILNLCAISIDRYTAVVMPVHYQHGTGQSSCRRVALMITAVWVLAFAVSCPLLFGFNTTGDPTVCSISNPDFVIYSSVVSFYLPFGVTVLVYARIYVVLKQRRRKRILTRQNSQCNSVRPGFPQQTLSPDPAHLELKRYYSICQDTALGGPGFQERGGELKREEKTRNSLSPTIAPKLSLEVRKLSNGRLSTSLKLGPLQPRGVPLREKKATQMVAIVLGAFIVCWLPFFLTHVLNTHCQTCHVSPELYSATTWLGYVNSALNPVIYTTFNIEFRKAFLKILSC

[4] = molecular target: Endothelin ETB (Homo sapiens (Human), UniProt P24530); assay: Radioligand binding assay No. 224110; conditions: test substance 10 μM, read-out: Inhibitory rate (%), Endothelin ETB
Endothelin ETB, sequence (P24530 27-442): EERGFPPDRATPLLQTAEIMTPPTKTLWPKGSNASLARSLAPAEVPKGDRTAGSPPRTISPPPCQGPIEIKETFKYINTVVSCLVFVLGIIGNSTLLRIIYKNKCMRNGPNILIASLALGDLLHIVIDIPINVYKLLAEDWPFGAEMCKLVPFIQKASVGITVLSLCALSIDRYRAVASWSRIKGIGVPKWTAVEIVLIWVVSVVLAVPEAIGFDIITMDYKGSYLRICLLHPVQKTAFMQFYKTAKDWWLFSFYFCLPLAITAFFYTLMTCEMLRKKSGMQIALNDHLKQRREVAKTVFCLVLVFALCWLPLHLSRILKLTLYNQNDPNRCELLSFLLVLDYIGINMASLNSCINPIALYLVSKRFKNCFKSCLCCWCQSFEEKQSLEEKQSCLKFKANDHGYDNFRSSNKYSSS

[5] = molecular target: Histamine H1 (Homo sapiens (Human), UniProt P35367); assay: Radioligand binding assay No. 239610; conditions: test substance 10 μM, read-out: Inhibitory rate (%), Histamine H1
Histamine H1, sequence (P35367 whole entry): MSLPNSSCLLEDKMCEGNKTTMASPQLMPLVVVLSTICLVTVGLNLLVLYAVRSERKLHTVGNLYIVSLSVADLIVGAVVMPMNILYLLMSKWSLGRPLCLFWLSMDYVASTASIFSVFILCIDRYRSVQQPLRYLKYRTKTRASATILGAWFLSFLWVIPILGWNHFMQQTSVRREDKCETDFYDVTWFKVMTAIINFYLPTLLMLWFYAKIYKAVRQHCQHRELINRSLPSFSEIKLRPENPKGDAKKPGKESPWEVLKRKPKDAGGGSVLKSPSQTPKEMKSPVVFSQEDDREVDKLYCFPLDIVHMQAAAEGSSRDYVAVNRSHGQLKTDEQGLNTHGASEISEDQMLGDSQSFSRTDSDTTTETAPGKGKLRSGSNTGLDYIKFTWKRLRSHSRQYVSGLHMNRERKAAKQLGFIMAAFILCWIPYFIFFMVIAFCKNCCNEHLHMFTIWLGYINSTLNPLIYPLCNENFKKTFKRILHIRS

[6] = molecular target: Interleukin IL-1 (Mus musculus (Mouse), UniProt P13504); assay: Radioligand binding assay No. 243520; conditions: test substance 10 μM, read-out: Inhibitory rate (%), Interleukin IL-1
Interleukin IL-1, sequence (P13504 20-576): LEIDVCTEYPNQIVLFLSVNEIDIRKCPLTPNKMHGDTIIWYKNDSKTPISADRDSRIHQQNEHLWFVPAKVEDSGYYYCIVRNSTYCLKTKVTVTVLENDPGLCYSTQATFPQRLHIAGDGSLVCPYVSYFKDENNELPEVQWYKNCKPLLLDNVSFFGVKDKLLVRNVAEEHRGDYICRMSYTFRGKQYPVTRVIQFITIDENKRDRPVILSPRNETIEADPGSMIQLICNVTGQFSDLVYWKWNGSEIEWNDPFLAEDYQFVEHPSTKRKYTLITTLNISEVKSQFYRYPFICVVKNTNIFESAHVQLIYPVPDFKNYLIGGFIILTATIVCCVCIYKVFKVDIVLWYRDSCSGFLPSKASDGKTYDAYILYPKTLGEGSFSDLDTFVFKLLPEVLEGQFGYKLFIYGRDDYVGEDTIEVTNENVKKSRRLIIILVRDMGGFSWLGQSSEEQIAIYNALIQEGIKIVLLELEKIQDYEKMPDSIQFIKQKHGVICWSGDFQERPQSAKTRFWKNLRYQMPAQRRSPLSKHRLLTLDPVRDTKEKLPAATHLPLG

[7] = test system: Thyroid Hormone; assay: Radioligand binding assay No. 285900; conditions: test substance 10 μM; rat
[8] = molecular target: Transporter, Serotonin (5-Hydroxytryptamine) (SERT) (Homo sapiens (Human), UniProt P31645); assay: Radioligand binding assay No. 274030; conditions: test substance 10 μM, read-out: Inhibitory rate (%), Transporter, Serotonin (5-Hydroxytryptamine) (SERT)
Transporter, Serotonin (5-Hydroxytryptamine) (SERT), sequence (P31645 whole entry): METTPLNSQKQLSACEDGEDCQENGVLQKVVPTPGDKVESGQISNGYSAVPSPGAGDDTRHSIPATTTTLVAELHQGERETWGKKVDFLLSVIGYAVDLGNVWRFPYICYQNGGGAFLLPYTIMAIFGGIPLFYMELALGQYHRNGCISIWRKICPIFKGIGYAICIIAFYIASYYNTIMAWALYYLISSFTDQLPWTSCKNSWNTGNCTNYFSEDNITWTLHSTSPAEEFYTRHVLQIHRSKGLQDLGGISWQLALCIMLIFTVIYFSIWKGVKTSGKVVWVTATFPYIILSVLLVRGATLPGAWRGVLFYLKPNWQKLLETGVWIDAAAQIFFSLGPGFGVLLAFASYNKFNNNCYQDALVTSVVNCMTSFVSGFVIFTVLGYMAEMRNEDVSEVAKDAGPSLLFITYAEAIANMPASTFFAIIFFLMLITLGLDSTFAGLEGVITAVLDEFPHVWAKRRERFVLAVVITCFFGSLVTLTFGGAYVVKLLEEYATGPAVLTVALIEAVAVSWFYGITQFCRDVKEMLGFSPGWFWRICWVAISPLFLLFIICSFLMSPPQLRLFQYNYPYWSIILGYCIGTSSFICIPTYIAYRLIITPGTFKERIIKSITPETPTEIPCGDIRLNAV

[9] = test system: Lovo; assay: In vitro cytological inhibitory activity (XTT); format: cell-based; conditions: Homo sapiens, 72 hrs
Description: Lovo: Human colon carcinoma cell line;
(§1) 1. Preparation of agents and compounds:
(§2) • 1.1 Preparation of phosphoric acid buffering solution (PBS): 8 g NaCl, 0.2 g KCl, 1.44 g Na2HPO4 and 0.24 g KH2PO4 were weighed and added to 800 mL ultrapure water. The mixture was adjusted to pH=7.4, and ultrapure water was added to the metered volume of IL. Then the autoclaving was conducted for 20 mins. • 1.2 Preparation of XTT detection working solution: 100 mg (2,3-Bis-(2-methoxy-4-nitro-5-sulfophenyl)-2H-tetrazolium-5-carboxanilide); 2,3-bis(2-methoxy-4-nitro-5-sulfophenyl)-5-[(phenylamino)carbonyl]-2H-tetrazolium hydroxide (XTT) powder was weighed, and dissolved under protection from light 300 mL of phenol red-free and serum-free RPMI1640 culture, which had been warmed up to 50° C. The resulting mixture was filtered, packaged and used immediately or in one week. The complete process was conducted under protection from light. • 1.3 Preparation of the test compound • Preparation of the stock solution of the test compound: The test compound powder was dissolved in DMSO in a concentration of 10 mM. • Preparation of the gradiently diluted solution of the test compound: 10 mM of the stock solution of the test compound was successively and gradiently diluted with DMSO by 4 folds for 10 concentrations. […]

[10] = test system: SKOV-3; assay: In vitro cytological inhibitory activity (XTT); format: cell-based; conditions: Homo sapiens, SK-OV-3, 72 hrs
Description: SKOV-3: Human ovarian cancer cell line;
as §1, §2

Cannabinoid CB1, sequence (P21554 whole entry): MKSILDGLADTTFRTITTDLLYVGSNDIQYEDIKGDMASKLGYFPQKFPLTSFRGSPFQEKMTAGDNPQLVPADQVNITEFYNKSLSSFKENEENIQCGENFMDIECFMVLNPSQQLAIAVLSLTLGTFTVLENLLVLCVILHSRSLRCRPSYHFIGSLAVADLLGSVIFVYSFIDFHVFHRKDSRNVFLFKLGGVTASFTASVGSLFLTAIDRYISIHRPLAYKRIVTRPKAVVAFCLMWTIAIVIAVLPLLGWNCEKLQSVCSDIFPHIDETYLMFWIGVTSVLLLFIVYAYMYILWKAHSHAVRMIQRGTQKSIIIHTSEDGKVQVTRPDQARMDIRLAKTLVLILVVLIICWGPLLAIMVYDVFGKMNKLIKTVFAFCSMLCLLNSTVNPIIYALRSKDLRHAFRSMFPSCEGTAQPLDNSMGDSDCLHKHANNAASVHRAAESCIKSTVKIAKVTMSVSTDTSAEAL
Adrenergic β2, sequence (P07550 whole entry): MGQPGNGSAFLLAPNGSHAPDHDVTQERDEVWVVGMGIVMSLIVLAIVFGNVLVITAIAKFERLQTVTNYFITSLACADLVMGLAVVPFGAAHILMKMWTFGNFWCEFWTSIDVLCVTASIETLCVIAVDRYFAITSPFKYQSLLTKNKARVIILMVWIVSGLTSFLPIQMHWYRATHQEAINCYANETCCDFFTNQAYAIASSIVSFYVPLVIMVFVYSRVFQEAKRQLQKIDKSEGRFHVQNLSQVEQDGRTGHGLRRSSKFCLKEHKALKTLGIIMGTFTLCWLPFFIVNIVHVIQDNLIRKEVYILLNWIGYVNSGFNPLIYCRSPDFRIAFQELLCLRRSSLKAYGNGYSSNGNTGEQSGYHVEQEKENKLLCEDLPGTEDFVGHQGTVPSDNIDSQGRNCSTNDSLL

IC50 [10] [nM]	Structure (SMILES)	inhibition at 10 µM [1] [%]	inhibition at 10 µM [2] [%]	inhibition at 10 µM [3] [%]	inhibition at 10 µM [4] [%]	inhibition at 10 µM [5] [%]	inhibition at 10 µM [6] [%]	Inhibitory rate (%), Thyroid Hormone [7] [%]	inhibition at 10 µM [8] [%]	IC50 [9] [nM]
	Nc1ccc(-c2ccc3ncc4c(=O)[nH]c(=O)n(-c5cccc(C(F)(F)F)c5)c4c3n2)cn1 [Compound 5, 9-(6-aminopyridin-3-yl)-1-(3-(trifluoromethyl)phenyl)pyrimido[5,4-c][1,5]naphthyridine-2,4(1H,3H)-dione]	17	25	15	7	10	11	9	6	50.1
57.2	O=c1[nH]c(=O)n(-c2cccc(C(F)(F)F)c2)c2c1cnc1ccc(-c3cnc4[nH]ccc4c3)nc12 [Compound 30, 9-(1H-pyrrolo[2,3-b]pyridin-5-yl)-1-(3-(trifluoromethyl)phenyl)pyrimido[5,4-c][1,5]naphthyridine-2,4(1H,3H)-dione]									
